Assay results taken from patent publication US20240285552A1 (priority 2020, published 2024).
Residues, ends and D or L forms follow the SMILES beside them. *: point of attachment. Cbz = O=C(OCc1ccccc1)*; CH2F = FC*

Test system: B.1.617.2 Delta Variant of SARS-CoV-2
Test: microbe, parasite or virus in culture
Format: cell-based

CC(C)C[C@H](NC(=O)OCc1ccccc1)C(=O)N[C@@H](CC(C)C)C(=O)N[C@@H](Cc1ccc(O)cc1)C(=O)CF [Calpain Inhibitor IV] (Cbz-Leu-Leu-Tyr-CH2F)
Conc. at Max. % Inhibition: 0.45 µM
Max. Inhibition: 105.43%
IC50 (read-out: IC 50 against B.1.617.2 Delta Variant Infection-Induced CPE): 124 nM
